This passage reports IC50 results from patent US20180148418A1, “AMIDO-SUBSTITUTED CYCLOHEXANE DERIVATIVES” (Bayer Pharma Aktiengesellschaft, priority 2015, published 2018).

For the assay, the system named is HEK293 cells cotransfected with the FOP control vector. Nature of the assay: HEK293 FOP assay (control reporter with non-functional TCF elements). The class given is cell-based. The following applies: Homo sapiens, 16 hours. In short, it runs like this:
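Compound series from 50 μM down to 15 nM, prediluted in DMSO then 50-fold into CAFTY buffer (pH 7.4, 2 mM Ca2+, 0.01% BSA), tested alongside TOP cells on a Geneticin-selected HEK293 FOP line whose TCF elements are replaced by a random sequence; recombinant human Wnt-3a applied at 2500-5 ng/ml.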

As to `CN1CC(NC(=O)c2nc[nH]c2C(=O)N[C@H]2CC[C@@]3(CCN(c4ccc(F)cc4Cl)C3=O)CC2)C1` [Example 187, N^5-[(trans)-2-(2-chloro-4-fluorophenyl)-1-oxo-2-azaspiro[4.5]dec-8-yl]-N^4-(1-methylazetidin-3-yl)-1H-imidazole-4,5-dicarboxamide], the IC50 (as a rule, the midpoint of a concentration-inhibition curve) was at least 50 µM.

As for `O=C(N[C@H]1CC[C@@]2(CCN(c3ccc(F)cc3Cl)C2=O)CC1)c1nc[nH]c1C(=O)NCC(F)(F)F` [Example 195, N^4-[(trans)-2-(2-chloro-4-fluorophenyl)-1-oxo-2-azaspiro[4.5]dec-8-yl]-N^5-(2,2,2-trifluoroethyl)-1H-imidazole-4,5-dicarboxamide], the IC50 was at least 50 µM.

In the case of `CNC(=O)c1nc[nH]c1C(=O)N[C@H]1CC[C@@]2(CCN(c3cc(F)c(F)cc3Cl)C2=O)CC1` [Example 196, N^5-[(trans)-2-(2-chloro-4,5-difluorophenyl)-1-oxo-2-azaspiro[4.5]dec-8-yl]-N^4-methyl-1H-imidazole-4,5-dicarboxamide], the 50% inhibitory concentration (IC50) was determined as 35 µM.

In the case of `CCNC(=O)c1nc[nH]c1C(=O)N[C@H]1CC[C@@]2(CCN(c3cc(F)c(F)cc3Cl)C2=O)CC1` [Example 197, N^5-[(trans)-2-(2-chloro-4,5-difluorophenyl)-1-oxo-2-azaspiro[4.5]dec-8-yl]-N^4-ethyl-1H-imidazole-4,5-dicarboxamide], the concentration for half-maximal inhibition (IC50) is 19 µM.

Regarding `CC(C)NC(=O)c1nc[nH]c1C(=O)N[C@H]1CC[C@@]2(CCN(c3cc(F)c(F)cc3Cl)C2=O)CC1` [Example 198, N^5-[(trans)-2-(2-chloro-4,5-difluorophenyl)-1-oxo-2-azaspiro[4.5]dec-8-yl]-N^4-(propan-2-yl)-1H-imidazole-4,5-dicarboxamide], inhibition was half-maximal at 19 µM (IC50).

`O=C(NC1CC1)c1nc[nH]c1C(=O)N[C@H]1CC[C@@]2(CCN(c3cc(F)c(F)cc3Cl)C2=O)CC1` [Example 199, N^5-[(trans)-2-(2-chloro-4,5-difluorophenyl)-1-oxo-2-azaspiro[4.5]dec-8-yl]-N^4-cyclopropyl-1H-imidazole-4,5-dicarboxamide] had an IC50 of 21 µM.

On to `O=C(N[C@H]1CC[C@@]2(CCN(c3cc(F)c(F)cc3Cl)C2=O)CC1)c1[nH]cnc1C(=O)N1CC(F)C1` [Example 200, N-[(trans)-2-(2-chloro-4,5-difluorophenyl)-1-oxo-2-azaspiro[4.5]dec-8-yl]-4-[(3-fluoroazetidin-1-yl)carbonyl]-1H-imidazole-5-carboxamide], for which the IC50 was 30 µM.

For the compound `O=C(NCC(F)(F)F)c1nc[nH]c1C(=O)N[C@H]1CC[C@@]2(CCN(c3cc(F)c(F)cc3Cl)C2=O)CC1` [Example 201, N^5-[(trans)-2-(2-chloro-4,5-difluorophenyl)-1-oxo-2-azaspiro[4.5]dec-8-yl]-N^4-(2,2,2-trifluoroethyl)-1H-imidazole-4,5-dicarboxamide], inhibition was half-maximal at 22 µM (IC50).

`COCCNC(=O)c1nc[nH]c1C(=O)N[C@H]1CC[C@@]2(CCN(c3cc(F)c(F)cc3Cl)C2=O)CC1` [Example 202, N^5-[(trans)-2-(2-chloro-4,5-difluorophenyl)-1-oxo-2-azaspiro[4.5]dec-8-yl]-N^4-(2-methoxyethyl)-1H-imidazole-4,5-dicarboxamide] showed a half-inhibitory concentration (IC50) of 39 µM. Compared with the last compound, the IC50 is about 1.8-fold higher.

In the case of `CNC(=O)c1nc[nH]c1C(=O)N[C@H]1CC[C@H](C(=O)N(C)c2ccccc2C)CC1` [Example 203, N^4-methyl-N^5-{trans-4-[methyl(2-methylphenyl)carbamoyl]cyclohexyl}-1H-imidazole-4,5-dicarboxamide], the concentration for half-maximal inhibition (IC50) is at least 50 µM.

Take `O=C(N[C@H]1CC[C@H](C(=O)Nc2ccc(F)cc2Cl)CC1)c1cnn2ccccc12` [Example 205, N-{trans-4-[(2-chloro-4-fluorophenyl)carbamoyl]cyclohexyl}pyrazolo[1,5-a]pyridine-3-carboxamide]: the IC50 amounted to 25 µM. This lies in the double-digit micromolar range.

Regarding `O=C(N[C@H]1CC[C@H](C(=O)Nc2ccc(F)cc2Cl)CC1)c1cnc2ccccn12` [Example 206, N-{trans-4-[(2-chloro-4-fluorophenyl)carbamoyl]cyclohexyl}imidazo[1,2-a]pyridine-3-carboxamide], the IC50 came to 25 µM.
